One may read the IC50 as the midpoint of a concentration-inhibition curve. Read a low IC50 as inhibition by little substance.

The target in this assay is lymphocyte-specific protein tyrosine kinase (LCK) (Homo sapiens, UniProt P06239). Briefly: ADP-Glo kinase assay; also fluorescence increase at […] nm on binding LCK after decaging of 3e, reversed by TC-S7003. The assay is classed as biochemical.
Chain of lymphocyte-specific protein tyrosine kinase (LCK) (P06239 2-509): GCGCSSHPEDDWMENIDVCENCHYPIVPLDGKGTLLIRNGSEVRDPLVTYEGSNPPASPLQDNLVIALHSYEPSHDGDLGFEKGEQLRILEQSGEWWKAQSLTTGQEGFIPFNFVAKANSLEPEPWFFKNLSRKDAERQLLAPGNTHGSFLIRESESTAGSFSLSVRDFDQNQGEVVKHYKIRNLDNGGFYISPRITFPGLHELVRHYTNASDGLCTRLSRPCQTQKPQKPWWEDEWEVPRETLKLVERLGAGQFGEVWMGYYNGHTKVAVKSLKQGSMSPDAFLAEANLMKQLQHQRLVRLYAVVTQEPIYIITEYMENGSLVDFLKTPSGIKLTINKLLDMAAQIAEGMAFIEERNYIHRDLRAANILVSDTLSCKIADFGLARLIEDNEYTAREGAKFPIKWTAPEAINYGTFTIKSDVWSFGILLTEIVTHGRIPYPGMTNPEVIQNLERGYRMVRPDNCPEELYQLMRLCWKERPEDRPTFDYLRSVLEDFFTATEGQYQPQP

The compound `CC(C)n1nc(C#Cc2ccc3cc(N(C)C)ccc3c2)c2c(N)ncnc21` [compound 1, LCK inhibitor 1] registered an IC50 of 2400 nM.
